The values that follow come from US7026353B2, “Inhibition of Gram positive bacteria” (Unisearch Limited, A.C.N., priority 1998, dated 2006).

Data set [1] deals with Staphylococcus aureus. Put plainly: Initial screening against growth in Nutrient Broth, microplate reader, 9 hours. It counts as cell-based. Particulars: for % growth compared to the control value: after 9 hr. As to the method:
(§1) All initial screening of six different furanones against growth of Staphylococcus aureus and Staphylococcus epidermidis was performed in a BioRad 3550 Microplate Reader. Ten percent (10%) of an overnight culture (10^8 cells/ml, resulting in final cell densities of 10^6 cells/ml) was added to the growth media. Nutrient Broth, containing furanones at the concentrations 10 and 1 μg/ml. The bacteria were incubated at 37° C. and growth was measured at […] for 9 hours. Cytotoxicity in mammalian systems was measured as inhibition of the growth of mouse fibroblast cells.

Data set [2] deals with Staphylococcus epidermidis. Described as above. Format: cell-based. Particulars: for % growth compared to the control value: after 9 hr. How it is done: as §1
In data set [3] the test system is mouse fibroblast cell line L292. Nature of the data set: Cytotoxicity measured as inhibition of the growth of mouse fibroblast cells. Format: cell-based. Particulars: for Lowest concentration of furanones which significantly inhibited the growth of mouse fibroblast cell line: 30% depression of growth deemed significant. How it is done: as §1
For the next data set, the system named is S. aureus 015. Nature of the data set: Effect on the growth of ocular bacteria in TSB. It counts as cell-based. Particulars: for Effect on growth curves: S. aureus strains, FIGS. 3 to 5. As to the method: (§2) Strains were cultured in 5 ml of TSB with or without SUs in 35° C. water bath with agitation (120 rpm). Growth rates were monitored by reading OD660nm at time intervals of 1, 2, 3, 4, 5, 7, and 24 hours.

The test system of another data set is S. epidermidis 017. Nature of the data set: Effect on the growth of ocular bacteria in TSB. Particulars: for Percentage growth compared to the control values: after 24 h, TSB; for Effect on growth curves: S. epidermidis strains, FIGS. 3 to 5. It counts as cell-based. How it is done:
as §2

The subject of the next data set is Corynebacterium 003. Put plainly: Effect on the growth of ocular bacteria in TSB. It counts as cell-based, Corynebacterium sp. Particulars: for Percentage growth compared to the control values: after 24 h, TSB. As to the method: as §2
Another data set concerns Enterococcus faecalis. Nature of the data set: Screening against growth in NB, microplate reader, 24 hours. Format: cell-based. Particulars: 10 μg/ml, after 24 hr. As to the method: (§3) A screening of six different furanone compounds against growth of Staphylococcus aureus, Staphylococcus epidermidis. Streptococcus salivarius, Streptococcus pyogenes, Enterococcus faecalis and Micrococcus luteus was performed in) a BioRad 3550 Microplate Reader. Ten percent of overnight cultures were added to the growth media. NB containing furanones at the concentration 10 μg/ml. The bacteria were incubated at 37° C. and growth was measured at 595 nm for 24 hours.

Another data set concerns Micrococcus luteus. Described as above. Format: cell-based. Particulars: 10 μg/ml, after 24 hr. How it is done: as §3
In data set [4] the test system is Staphylococcus aureus. Described as above. Format: cell-based. Particulars: 10 μg/ml, after 24 hr. How it is done:
as §3

Data set [5] concerns Staphylococcus epidermidis. Described as above. Format: cell-based. Particulars: 10 μg/ml, after 24 hr. As to the method: as §3
The next data set relates to Streptococcus pyogenes. The data set is described as above. Format: cell-based. Particulars: 10 μg/ml, after 24 hr. How it is done: as §3
The next data set deals with Streptococcus salivarius. The description is as above. Format: cell-based. Particulars: 10 μg/ml, after 24 hr. As to the method:
as §3

Structures are written as SMILES.

Turning to `CCCCC1=C(Br)C(=CBr)OC1=O` [Compound 2], the “% growth compared to the control value” in the data set on Staphylococcus aureus [1] (1 μg/ml) stood at 87.9%; in the data set on Staphylococcus aureus [1] (10 μg/ml) it was 57.9%; in data set [2] (1 μg/ml), 63.7%; in data set [2] (10 μg/ml), 53.2%; with Enterococcus faecalis it was 77%; in the data set with Micrococcus luteus it was 86%. In addition, the “% growth compared to the control value” with Staphylococcus aureus [4] is reported as 58%; in data set [5] it was 53%; with Streptococcus pyogenes, 87%; with Streptococcus salivarius it was 86%. Further, the “Lowest concentration of furanones which significantly inhibited the growth of mouse fibroblast cell line” value in data set [3] was found to be 150 µg/mL. The “Effect on growth curves” value with S. aureus 015 (100 μg/ml) and in the data set on S. epidermidis 017 (100 μg/ml) was “inhibited the growth” each time. Further, the “Percentage growth compared to the control values” is on record as 7% with S. epidermidis 017 (100 μg/ml) and 14% in the data set on Corynebacterium 003 (100 μg/ml). Besides, in the data set with Corynebacterium 003 (100 μg/ml), the Inhibition of growth result is recorded as “approximately 86%”.

With `CCCC(OC(C)=O)C1=C(Br)C(=CBr)OC1=O` (stereo not drawn) [Compound 4, reference compound], the “% growth compared to the control value” is given as 84.2% in the data set on Staphylococcus aureus [1] (1 μg/ml); 34.3% with Staphylococcus aureus [1] (10 μg/ml); 77.1% in data set [2] (1 μg/ml); 53.2% in [2] (10 μg/ml); 75% in the data set on Enterococcus faecalis; 75% in the data set with Micrococcus luteus. Besides, the “% growth compared to the control value” in the data set on Staphylococcus aureus [4] was 34%; in [5], 53%; in the data set on Streptococcus pyogenes, 0%; in the data set on Streptococcus salivarius, 85%. The “Toxicity against mammalian cell lines” value in data set [3] is reported as “quite toxic”. The “Lowest concentration of furanones which significantly inhibited the growth of mouse fibroblast cell line” value in data set [3] stood at 1 µg/mL.

Consider `O=C1C=C(Br)/C(=C/Br)O1` [Compound 30], for which the “% growth compared to the control value” with Staphylococcus aureus [1] (1 μg/ml) stood at 56.6%; in the data set with Staphylococcus aureus [1] (10 μg/ml), 0%; in data set [2] (1 μg/ml) it was 72.1%; in data set [2] (10 μg/ml) it was 62.2%; with Enterococcus faecalis it was 54%; with Micrococcus luteus it was 86%. The “% growth compared to the control value” in the data set on Staphylococcus aureus [4] was determined as 0%; in data set [5], 62%; in the data set with Streptococcus pyogenes it was 50%; with Streptococcus salivarius it was 73%. The “Inhibition of growth” value (in the data set on Staphylococcus aureus [1] (10 ug/ml); in [2] (10 ug/ml)) was “completely inhibiting growth” in each case. Moreover, in data set [3], the “Lowest concentration of furanones which significantly inhibited the growth of mouse fibroblast cell line” value stood at 20 µg/mL. Besides, the “Percentage growth compared to the control values” was 97% with S. aureus 015 (10 μg/ml, after 24 h, TSB); 91% in the data set on S. epidermidis 017 (10 μg/ml); 90% with Corynebacterium 003 (10 μg/ml). Besides, the “Effect on growth curves” value in the data set with S. aureus 015 (10 μg/ml) and in the data set with S. epidermidis 017 (10 μg/ml) was “only slowed down the growth” each time. In the data set with Corynebacterium 003 (10 μg/ml), the “Effect on growth” value is on record as “only slowed down the growth”. For the same molecule, the Growth reached in the data set with Corynebacterium 003 (20 μg/ml (as printed in text), after 24 h incubation) was 90%.

As to `CCCC(F)C1=C(Br)/C(=C/Br)OC1=O` (stereo not drawn) [Compound 45], the “% growth compared to the control value” came out at 85% with Enterococcus faecalis; 100% in the data set on Micrococcus luteus; 4% in the data set on Staphylococcus aureus [4]; 22% in [5]; 26% with Streptococcus pyogenes; 69% in the data set on Streptococcus salivarius.
